Marks after values point to notes of the source that are not given here.
Legend:
[1] = tested on: CYP3A; experiment: Within- and between-subject variance and genetic component (Kalow) of the 4 CYP3A biomarkers, three occasions
Protocol: (§1) Predefined primary endpoint was midazolam AUC. All concentrations and pharmacokinetic parameters were determined on three independent occasions to compare intra- versus interindividual variation. […] In structural equation modeling of heritability and in the other multifactorial analyses the individual means from the measurements or parameters obtained on the three occasions were used. Using structural equation analysis, variation was separated into additive genetic (A), common environmental (C), and unique environmental (E) effects. The heritability is the proportion of the variance resulting from the genetic effect (A). In order to investigate the genetic, common environmental, and unique environmental effects of the different traits taken into account, the possible correlation between traits were fitted in multivariate ACE, AE, and CE biometrical models using the mcglm package for multivariate regression analysis in R. As an exploratory analysis, we computed the correlation between MZ and DZ twins based on an unstructured (equal mean and variance for MZ and DZ twins) model. In all models, the mean structure for each trait was specified as a linear function of the covariates age and sex.

[2] = tested on: CYP3A; experiment: Twin correlations and structural equation modeling (ACE, AE, CE) of heritability of the CYP3A biomarkers; settings: in vivo
Protocol: as §1

[3] = tested on: CYP3A; experiment: Multifactorial analysis of genetic and environmental effects on the CYP3A probe drugs and biomarkers; settings: in vivo
Protocol: DNA was isolated from whole venous blood by automated solid phase extraction with the EZ1^TM DNA Blood 350 μl Kit using the Bio-robot EZ1^TM (both Qiagen, Hilden, Germany). The CYP3A4^∗1b and ^∗22 alleles as well as the CYP3A5^∗1/^∗3 polymorphism were genotyped by DNA sequencing using fluorescence-labeled dideoxynucleotides and detection via Gene Mapper v3.7 Software® (Applied Biosystems®, Foster City, United States). Zygosity was assessed by analyzing variants in 23 polymorphic genes. Monozygosity was concluded when there were no differences regarding the polymorphisms in both siblings of one twin pair.
as §1

[4] = tested on: CYP3A; settings: in vivo
Protocol: Cholesterol and 4ß-OH cholesterol were measured in the baseline blood samples before drug administration. All samples were centrifuged for 10 min (4000 rpm) at 4°C and the plasma was stored at −20°C.
Calibration samples for cholesterol were prepared in isooctane with 10% 2-propanol in the concentration range from 1 to 30 μg. Calibration samples for 4ß-hydroxycholesterol were prepared in isooctane with 0.8% 2-propanol from 5 to 100 ng. […] Calibration samples were worked up as the samples, and analyzed together with the unknown samples. […] The concentration in unknown samples was obtained from the regression line.

What does the source list for `C[C@]12CCC(=O)C=C1[C@@H](O)C[C@@H]1[C@@H]2[C@@H](O)C[C@@]2(C)[C@H]1CC[C@]2(O)C(=O)CO` [6ß-OH-cortisol, 6-ß-hydroxycortisol]?
Genetic component ([1]; from intra- and inter-individual variation, independent of twin status, AUC, plasma concentration or 24-h urine Ae): 0.457; Variance between subjects (Varb) of Ae (24-h-urine) ([1]; human, in vivo): 8141 μg/24 h; Variance within subjects (Varw) of Ae (24-h-urine) ([1]; three occasions): 4247 μg/24 h; Variation due to additive genetic (inherited) effects [2]: 31%; rdz (correlation between DZ twins) [2]: 0.50 (0.13)*; rmz (correlation between MZ twins) [2]: 0.68 (0.06)*; Coefficient, CYP3A4*22 [3]: −127.40; Coefficient, CYP3A5*3 [3]: 0.70; Coefficient, age [3]: 0.94; Coefficient, lean body weight [3]: −1.35; Coefficient, sex [3]: −9.28; Coefficient, smoking status [3]: −8.66; Coefficient, oral contraceptives ([3]; po): 3.37; Ae (24-h-urine), mean [4]: 222 μg/24 h

Reference: paper PMC7472781, “Inherited and Acquired Determinants of Hepatic CYP3A Activity in Humans” (Frontiers in Genetics, 2020)
